Measured values reported in patent publication US12110507B2, “Method for preparing functional hepatic progenitor cells or hepatic cells, or functional small intestinal epithelial progenitor cells or small intestinal epithelial cells” (priority 2017, dated 2024).
Like-named read-outs stand apart in the source and are kept apart here.

Columns and labels:
[1] = test system: hepatic progenitor cells differentiated from iPSC-K cells; test: culture of hepatic progenitor cells differentiated from iPSC-K cells in the presence of an antibiotic (selection); type: cell-based, human; settings: for colony of cells after culture with antibiotic: concentration and culture period of each antibiotic as in Table 5
Method: The iPSC-K cells were cultured until becoming approximately 80% confluent. […] The colony was dissociated by gentle tapping of the dish and then suspended by the addition of hiPSC medium. The obtained cell suspension was transferred to a dish coated with gelatin, and incubated under conditions of 15 minutes, 37° C., and 5% CO2 to remove the feeder cells. The supernatant was centrifuged, and the recovered iPSC-K cells were suspended in EB medium (having the composition described below).
The EBs were recovered and suspended in XF32 medium (Uchida, H. et al., JCI Insight, 2017; 2 (1): e86492, doi:10.1172/jci.insight.86492). The EBs were placed at a concentration of 20 EBs/well in a 24-well plate coated with collagen, and differentiated into hepatic progenitor cells by adhesion culture at 37° C. for 35 days in 5% CO2. Then, the cells were further cultured for 2 days using modified SCM-6F8 medium (Wang, X. et al., Nature, 2015; 522 (7555): 173-8, doi:10.1038/nature14484, Epub 2015 Jun. 3) supplemented with 3 μg/ml puromycin (Wako Pure Chemical Industries, Ltd., #160-23151).
Functional hepatic progenitor cells were prepared from iPSC-K cells by the same procedures as in the sections (2-1) and (2-2) except that various antibiotics were used instead of puromycin. The antibiotics used and their concentrations, and the number of culture days will be shown below.

[2] = test system: hepatic progenitor cells differentiated from SEES5 cells; test: culture of hepatic progenitor cells differentiated from SEES5 cells in the presence of an antibiotic (selection); type: cell-based, human; settings: for colony of cells after culture with antibiotic: concentration and culture period of each antibiotic as in Table 6 (3 days)
[3] = test system: gut organoid differentiated from Edom-iPS cells; test: culture of gut organoid in the presence of puromycin; type: cell-based; settings: 2 days
Method: Gut organoid was prepared from Edom-iPS cells (PLoS Genet., 2011; 7 (5):e1002085, doi.org/10.1371/journal.pgen.1002085), menstrual blood-derived iPS cells, according to the procedures described in Uchida, H. et al., JCI Insight, 2017; 2 (1): e86492. After a lapse of 3 months, the gut organoid was cultured for 2 days in the presence of […] puromycin.

[4] = test system: functional hepatic progenitor cells prepared from SEES5 cells; settings: 5 mg/ml or 8 mg/ml ammonia, 2 days, after puromycin selection
[5] = test system: functional hepatic progenitor cells prepared from iPSC-O cells; test: selective culture with ammonia of functional hepatic progenitor cells prepared from iPSC-O cells; qRT-PCR after differentiation
[6] = conditions of Table 6, data not shown
[7] = hepatic cells differentiated from cells selected with ammonia, qRT-PCR, vs no ammonia selection

Row | Molecule | colony of cells after culture with antibiotic [2] | CYP3A4 expression of the cells selected with antibiotic [2, 6] | colony of cells after culture with antibiotic [1] | also measured
1 | COc1ccc(C[C@H](N)C(=O)N[C@H]2[C@@H](O)[C@H](n3cnc4c(N(C)C)ncnc43)O[C@@H]2CO)cc1 [puromycin] | A colony of the cells was obtained | markedly high level |  | colony of cells after culture in the presence of puromycin ([1]; 3 μg/ml puromycin, 2 days, modified SCM-6F8 medium): colony of the cells; cells obtained after puromycin culture of gut organoid ([3]; 2 mg/ml puromycin): Functional small intestinal epithelial progenitor cells having the ability to metabolize drugs were obtained; cells obtained after puromycin culture of gut organoid ([3]; 400 mg/ml puromycin): Functional small intestinal epithelial progenitor cells having the ability to metabolize drugs were obtained
2 | CN(CC[C@H](N)CC(=O)N[C@H]1C=C[C@H](n2ccc(N)nc2=O)O[C@@H]1C(=O)O)C(=N)N [blasticidin S] | A colony of the cells was obtained | markedly high level | A colony of the cells was obtained | 
3 | N [ammonia] |  |  |  | colony formation after selective culture with ammonia [4]: A colony was formed; colony formation after selective culture with ammonia ([5]; 5 mg/ml or 8 mg/ml ammonia, 2 days, after puromycin selection): A colony was formed; expression level of CPS1 [5, 7]: Elevation; expression level of CYP3A4 [5, 7]: further elevate; expression level of OTC [5, 7]: Elevation
4 | CN[C@@H]1[C@@H](O)[C@@H](O[C@@H]2[C@@H](O)[C@H](O[C@H]3O[C@H]([C@@H](C)O)[C@@H](O)[C@H](O)[C@H]3N)[C@@H](N)C[C@H]2N)OC[C@]1(C)O [G418] | A colony of the cells was obtained | markedly high level | A colony of the cells was obtained | 
5 | phleomycin | A colony of the cells was obtained |  | A colony of the cells was obtained | 
6 | Cc1c(N)nc([C@H](CC(N)=O)NC[C@H](N)C(N)=O)nc1C(=O)N[C@H](C(=O)N[C@H](C)[C@@H](O)[C@H](C)C(=O)N[C@H](C(=O)NCCC1=N[C@@H](c2nc(C(=O)NCCCCN=C(N)N)cs2)CS1)[C@@H](C)O)[C@@H](O[C@@H]1O[C@@H](CO)[C@@H](O)[C@H](O)[C@@H]1O[C@H]1O[C@H](CO)[C@@H](O)[C@H](OC(N)=O)[C@@H]1O)c1cnc[nH]1 [Zeocin™, phleomycin D1] | A colony of the cells was obtained |  | A colony of the cells was obtained | CYP3A4 expression of the cells selected with antibiotic [2]: markedly high level
